According to patent publication US20200399308A1, “COMPOUNDS AND METHODS FOR ELICITING ANTIMICROBIAL ACTIVITY” (Technion Research & Development Foundation Limited, priority 2018, published 2020):
Values after ≈ are worked out from the molar mass of the structure shown. “Also recorded” adds a separate entry of the source. Non-standard residues stand in square brackets, D forms with d. Residues, ends and D or L forms follow the SMILES beside them. *: point of attachment. 12Ado = NCCCCCCCCCCCC(=O)O; Decanoyl = CCCCCCCCCC(=O)*; Orn = NCCC[CH](N)C(=O)O

Tests used:
[1] = Charge at physiological pH (Q); type: physicochemical
[2] = Hydrophobicity (H) by HPLC elution from C18 column; type: physicochemical; settings: percentage of acetonitrile required for elution
[3] = tested on: E. coli 25922; assay: Outer-membrane damage assay (NPN uptake); type: cell-based, Escherichia coli; settings: sub-MIC concentrations
Method: 1-N-phenylnaphthylamine (NPN) uptake (manifested as fluorescence) reflects outer-membrane damage because normally bacteria are able to exclude hydrophobic substances. As described elsewhere, E. coli 25922 was grown to the mid-logarithmic phase of growth (OD=0.4-0.6 at 600 nm), centrifuged, and resuspended in 5 mM HEPES buffer containing 5 mM glucose to OD 0.5. Next, […] of NPN solution (0.2 mM) was added to every milliliter bacteria suspension. Using black 96-well plates, […] of bacteria suspension was mixed with […] of test compound at the desired concentration and the fluorescence immediately monitored (excitation 360 nm, emission 460 nm) for up to 10 min. Data were obtained from at least 2 independent experiments performed in triplicate.
(FU denotes fluorescence units; triangles denote Compound B, circles denote PMB, squares denote untreated control; error bars=SD).

[4] = tested on: Pseudomonas aeruginosa 11816; assay: Minimal inhibitory concentration; type: cell-based; settings: Pa 11816, overnight incubation, read-out: MIC
Method: (§1) Minimal inhibitory concentrations (MICs) were determined as previously described. […] MICs were determined by microdilution susceptibility testing in 96-well plates (by Nunc) using inocula of 10^5 bacteria per ml. Cell populations were evaluated by optical density measurements at 620 nm and were calibrated against a set of standards. Hundred (100) μl of a bacterial suspension were added to 100 μl of culture medium (control) or to 100 μl of culture medium containing various tested compound concentrations in 2-fold serial dilutions. Inhibition of proliferation was determined by optical density measurements at 620 nm after an incubation period of 24 hours at 37° C. Data were obtained from ≥2 independent experiments performed in duplicate.
(§2) The mean value (±SD) is shown for Compound C; Minimum inhibitory concentration (MIC) of compounds required to inhibit bacterial proliferation after overnight incubation.

[5] = tested on: Klebsiella pneumoniae 1287; assay: Minimal inhibitory concentration; type: cell-based; settings: Kp 1287, overnight incubation, read-out: MIC
Method: as §1, §2

[6] = tested on: Pseudomonas aeruginosa 11662; assay: Minimal inhibitory concentration; type: cell-based; settings: Pa 11662, overnight incubation, read-out: MIC
Method: as §1, §2

[7] = tested on: Escherichia coli ML35p; assay: Minimal inhibitory concentration; type: cell-based; settings: Ec ML35p, overnight incubation
Method: as §1, §2

[8] = tested on: Escherichia coli 25922; assay: Minimal inhibitory concentration; type: cell-based; settings: Ec 25922, overnight incubation, read-out: MIC
Method: as §1, §2

[9] = tested on: Klebsiella pneumoniae C2 (carbapenemase 2-producing strain); assay: Minimal inhibitory concentration; type: cell-based; settings: Kp C2, overnight incubation, read-out: MIC
Method: as §1, §2

[10] = tested on: Salmonella enterica serovar Choleraesuis 7308; assay: Minimal inhibitory concentration; type: cell-based; settings: CHOLERAESUIS / SC7308, SC 7308, overnight incubation, read-out: MIC
Method: as §1, §2

[11] = tested on: Salmonella enterica serovar Typhimurium 14028; assay: Minimal inhibitory concentration; type: cell-based; settings: ST 14028, overnight incubation, read-out: MIC
Method: as §1, §2

[12] = tested on: Klebsiella pneumoniae 1287; assay: Serum survival assay; type: cell-based; settings: 10 μM Compound B
Method: (§3) Serum survival assays were performed using fresh serum from normal mice or human serum from the Israel Blood Bank; samples were pooled and stored in aliquots at −80° C. until use. Time-dependent killing was determined in a final volume of 125 μL consisting of 112.5 μL of serum containing either a tested compound, egg white lysozyme (Amresco), lactoferrin (Vivinal lactoferrin FD; DMV International, Delhi, N.Y.), anti-murine C5/C5a antibody (25 μg/mL; ab194637; Abcam), or their combination, as specified. These solutions were supplemented with 12.5 μL of bacteria suspended in PBS at the desired concentration. After the specified time points of exposure, cultures were subjected to serial 10-fold dilutions in saline (0.85% NaCl) and plated for bacterial enumeration after incubation at 37° C. for an additional 24 hours. In heat-treated experiments, sera were incubated at 56° C. for 30 minutes for protein inactivation. Data were obtained from 3 independent experiments.

[13] = tested on: Escherichia coli 25922; assay: Serum survival assay; type: cell-based
Method: as §3

[14] = tested on: Escherichia coli mutant ML-35p; assay: Outer and cytoplasmic membrane permeabilization (nitrocefin / ONPG); type: cell-based; settings: E. coli ML-35p, buffer, 16 minutes after addition
Method: Membrane permeabilization was assessed using E. coli ML-35p as described elsewhere, to monitor the ability of the compounds to perturb the outer and/or cytoplasmic membranes. Reported data were obtained from ≥2 independent experiments performed in duplicate.
Additional support for this view was obtained by comparing the compounds' susceptibility to damage gram-negative bacteria membranes, using the E. coli mutant ML-35p. Widely described in the literature, the mutant was considered herein as representative of all gram-negative bacteria, rather than a specific species. This mutant is constitutive for cytoplasmic β-galactosidase, lacks lactose permease, and expresses a plasmid-encoded periplasmic β-lactamase. Two chromogenic reporter molecules (nitrocefin and 2-nitrophenyl β-d-galactopyranoside, respectively, absorbing at 486 and 420 nm) were used to monitor permeabilization of the outer membrane and/or cytoplasmic membrane in a single assay.

Compound: CCCCCCCCCC(=O)NC(CCCN)C(=O)NC(CCCN)C(=O)NCCCCCCCCCCCC(=O)NC(CCCN)C(N)=O (stereo not drawn) [Compound B] (Decanoyl-[Orn][Orn][12Ado][Orn]-NH2; configuration not given here)
- Q, charge at physiological pH [1]: 3
- H, hydrophobicity [2]: 43%
- OM permeabilization (NPN fluorescence) [3]: rapidly caused a dose-dependent increase in fluorescence
- MIC [4]: 50 µM (≈ 35.6 µg/mL)
- MIC [5]: > 50 µM
- MIC [6]: 50 µM (≈ 35.6 µg/mL)
- MIC [7]: > 50 µM
- MIC [8]: > 50 µM
- MIC [9]: > 50 µM
- MIC [10]: > 50 µM
- MIC [11]: > 50 µM
- inhibition at 10 µM ([12]; Klebsiella pneumoniae, 1287, 80% mouse serum, 3 h, read-out: growth inhibition in mouse serum): 48%
- antibacterial effect in human serum ([12]; absence of exogenous lysozyme): significant growth inhibition
- antibacterial effect in human serum ([12]; presence of exogenous lysozyme (18 μM)): potent bactericidal effect
- inhibition at 10 µM ([13]; Escherichia coli, 25922, 80% mouse serum, 10 μM Compound B, 3 h, read-out: growth inhibition in mouse serum): 74%
- antibacterial effect in human serum ([13]; 10 μM Compound B, absence of exogenous lysozyme): significant growth inhibition
- antibacterial effect in human serum ([13]; 10 μM Compound B, presence of exogenous lysozyme (18 μM)): potent bactericidal effect
- growth inhibition in serum obtained from treated mice ([13]; mouse serum obtained 1 hour after subcutaneous administration ([…]), 3 h incubation): 80%
- E. coli counts (final, from 4 log) ([13]; mouse serum, 10 μM Compound B plus 18 μM lysozyme): 1.7 log CFU/mL
- cytoplasmic membrane permeabilization [14]: similarly unable to permeabilize the cytoplasmic membrane at least up to approximately 10 μM; also recorded: some CM permeabilization occurred only at 10 mM
- outer membrane permeabilization [14]: similarly potent in inducing outer membrane permeabilization; also recorded: as efficient as dermaseptin in altering outer membrane permeability
